Measured values published in patent US4950662A, “2-oxa-isocephem compounds, compositions containing the same and processes for preparing the same” (Otsuka Pharmaceutical Co., Ltd., priority 1987, dated 1990).
Values after ≈ are worked out from the molar mass of the structure shown. Read-outs that look alike come from different tables or passages of the source.

Tests used:
P. mirabilis ATCC-29906 = assay: MIC by agar plate dilution method, P. mirabilis ATCC-29906; assay type: cell-based; details: Proteus mirabilis, ATCC29906, inoculum 1 x 10^6 cells/ml
Method: (§1) In order to investigate the in vitro activity of the under-mentioned compounds against various bacteria, the minimal inhibitory concentration (MIC) values were determined by the agar plate dilution method [see Chemotherapy, 22, 1123-1128 (1974)].
(§2) Each test inoculum was adjusted to I x 10^6 cells/ml (O.D., 600m : 0.07-0.16).

K. pneumoniae NCTC-9632 = assay: MIC by agar plate dilution method, K. pneumoniae NCTC-9632; assay type: cell-based; details: Klebsiella pneumoniae, NCTC9632
Method: as §1, §2

S. marcescens ATCC-13880 = assay: MIC by agar plate dilution method, S. marcescens ATCC-13880; assay type: cell-based; details: Serratia marcescens, ATCC13880, inoculum 1 x 10^6 cells/ml
Method: as §1, §2

E. coli No. 29 = assay: MIC by agar plate dilution method, E. coli No. 29; assay type: cell-based; details: Escherichia coli, inoculum 1 x 10^6 cells/ml
Method: as §1, §2

E. coli NIHJ = assay: MIC by agar plate dilution method, E. coli NIHJ; assay type: cell-based; details: Escherichia coli, inoculum 1 x 10^6 cells/ml
Method: as §1, §2

M. morganii IIDKono = assay: MIC by agar plate dilution method, M. morganii IIDKono; assay type: cell-based; details: Morganella morganii
Method: as §1, §2

S. aureus FDA-209-p = assay: MIC by agar plate dilution method, S. aureus FDA-209-p; assay type: cell-based, Staphyloccocus aureus; details: Staphylococcus aureus, FDA209, inoculum 1 x 10^6 cells/ml
Method: as §1, §2

P. aeruginosa NCTC-10490 = assay: MIC by agar plate dilution method, P. aeruginosa NCTC-10490; assay type: cell-based; details: Pseudomonas aeruginosa, NCTC10490, inoculum 1 x 10^6 cells/ml
Method: as §1, §2

M. morganii ATCC-25830 = assay: MIC by agar plate dilution method, M. morganii ATCC-25830; assay type: cell-based; details: Morganella morganii, ATCC25830
Method: as §1, §2

P. mirabilis 1287 = assay: MIC by agar plate dilution method, P. mirabilis 1287; assay type: cell-based; details: Proteus mirabilis, inoculum 1 x 10^6 cells/ml
Method: as §1, §2

S. marcescens IFO-12648 = assay: MIC by agar plate dilution method, S. marcescens IFO-12648; assay type: cell-based; details: Serratia marcescens, IFO12648, inoculum 1 x 10^6 cells/ml
Method: as §1, §2

[1] = K. pneumoniae NCTC-9632, inoculum 1 x 10^6 cells/ml, read-out: MIC
[2] = M. morganii IIDKono, inoculum 1 x 10^6 cells/ml, read-out: MIC
[3] = M. morganii ATCC-25830, inoculum 1 x 10^6 cells/ml, read-out: MIC

SMILES	MIC (P. mirabilis ATCC-29906)	MIC (K. pneumoniae NCTC-9632; [1])	MIC (S. marcescens ATCC-13880)	MIC (E. coli No. 29)	MIC (E. coli NIHJ)	MIC (M. morganii IIDKono; [2])	MIC (S. aureus FDA-209-p)	MIC (P. aeruginosa NCTC-10490)	MIC (M. morganii ATCC-25830; [3])	MIC (P. mirabilis 1287)	MIC (S. marcescens IFO-12648)	MIC (K. pneumoniae NCTC-9632)	MIC (M. morganii IIDKono)	MIC (M. morganii ATCC-25830)
CO/N=C(\C(=O)N[C@@H]1C(=O)N2C(C(=O)O)=C(CN3CCCC3)OC[C@H]12)c1csc(N)n1 [No. 1, (6S,7S)-7-[2-(2-aminothiazol-4-yI)-2-methoxyiminoacetamide]-3-(1-pyrolidinyl)methyl-Δ^3-0-2-isocephem-4-carboxylic acid (syn isomer)]	0.2 µg/mL (≈ 0.444 µM)	0.2 µg/mL (≈ 0.444 µM)	0.39 µg/mL (≈ 0.866 µM)	0.1 µg/mL (≈ 0.222 µM)	0.1 µg/mL (≈ 0.222 µM)	0.2 µg/mL (≈ 0.444 µM)	1.56 µg/mL (≈ 3.46 µM)	–	–	–	–	–	–	–
CO/N=C(\C(=O)N[C@@H]1C(=O)N2C(C(=O)[O-])=C(C[N+]3(C)CCc4ccccc4C3)OC[C@H]12)c1csc(N)n1 (stereo partly drawn) [No. 4, (6S,7S)-7-[2-(2-aminothiazol-4-Yl)-2-methoxyiminoacetamide]3-(2-methyl-2-1,2,3,4-tetrahydroisoquinoline-2-yl)methyl-Δ^3-0-2-isocephem-4-carboxylate (syn isomer)]	0.2 µg/mL (≈ 0.38 µM)	0.2 µg/mL (≈ 0.38 µM)	0.2 µg/mL (≈ 0.38 µM)	0.05 µg/mL (≈ 0.095 µM)	0.1 µg/mL (≈ 0.19 µM)	0.1 µg/mL (≈ 0.19 µM)	0.78 µg/mL (≈ 1.48 µM)	–	–	–	–	–	–	–
CO/N=C(\C(=O)N[C@@H]1C(=O)N2C(C(=O)[O-])=C(C[n+]3ccccc3)OC[C@H]12)c1csc(N)n1 [No. 5, (6S,7S)-7-[2-(2-aminothiazol-4-yl)-2-methoxyiminoacetamide]-3-[(1-pyridinio)methyl]-Δ^3-0-2-isocephem-4-carboxylate (syn isomer)]	0.1 µg/mL (≈ 0.218 µM)	–	0.1 µg/mL (≈ 0.218 µM)	0.05 µg/mL (≈ 0.109 µM)	0.05 µg/mL (≈ 0.109 µM)	–	0.39 µg/mL (≈ 0.851 µM)	–	–	–	–	0.05 µg/mL (≈ 0.109 µM)	0.05 µg/mL (≈ 0.109 µM)	–
CO/N=C(\C(=O)N[C@@H]1C(=O)N2C(C(=O)[O-])=C(C[N+]3(C)CCCC3)OC[C@H]12)c1csc(N)n1 [No. 2, (6S,7S)-7-[2-(2-aminothiazol-4-yl)-2-methoxyiminoacetamide]-3-(I-methyl-1-pyrrolidinio)methyl-Δ^3-0-2-isocephem-4-carboxylate (syn isomer)]	0.1 µg/mL (≈ 0.215 µM)	–	0.1 µg/mL (≈ 0.215 µM)	0.05 µg/mL (≈ 0.108 µM)	0.05 µg/mL (≈ 0.108 µM)	0.1 µg/mL (≈ 0.215 µM)	0.39 µg/mL (≈ 0.84 µM)	–	–	–	–	0.05 µg/mL (≈ 0.108 µM)	–	–
CC(C)O/N=C(\C(=O)N[C@@H]1C(=O)N2C(C(=O)[O-])=C(C[n+]3ccc(-c4cnco4)cc3)OC[C@H]12)c1csc(N)n1 [No. 8, (6S,7S)-7-[2-(2-aminothiazol-4-yl}-2-isopropyloxyiminoacetamide]-3-[[4-(5-oxazolyl)-1-pyridinio]methyl]-Δ^3-0-2-isocephem-4-carboxylate (syn isomer)]	–	≤ 0.025 µg/mL	–	≤ 0.05 µg/mL	0.05 µg/mL (≈ 0.0903 µM)	–	0.2 µg/mL (≈ 0.361 µM)	25 µg/mL (≈ 45.2 µM)	–	0.05 µg/mL (≈ 0.0903 µM)	0.2 µg/mL (≈ 0.361 µM)	–	–	0.05 µg/mL (≈ 0.0903 µM)
C[N+]1(CC2=C(C(=O)[O-])N3C(=O)[C@@H](NC(=O)/C(=N\OC4CCCC4)c4csc(N)n4)[C@H]3CO2)CCCC1 [No. 11, (6S,7S)-7-[2-(2-aminothiazol-4-yl)-2-cyclopentyloxyiminoacetamide]-3-(I-methyl-1-pyrrolidinio]methyl-Δ^3-0-2-isocephem-4-carboxylate (syn isomer)]	–	0.1 µg/mL (≈ 0.193 µM)	–	0.1 µg/mL (≈ 0.193 µM)	0.1 µg/mL (≈ 0.193 µM)	–	0.2 µg/mL (≈ 0.386 µM)	12.5 µg/mL (≈ 24.1 µM)	0.2 µg/mL (≈ 0.386 µM)	0.2 µg/mL (≈ 0.386 µM)	0.39 µg/mL (≈ 0.752 µM)	–	–	–

Second part, led by results:

MIC (P. mirabilis ATCC-29906)	MIC (K. pneumoniae NCTC-9632; [1])	MIC (S. marcescens ATCC-13880)	MIC (E. coli No. 29)	MIC (E. coli NIHJ)	MIC (M. morganii IIDKono; [2])	MIC (S. aureus FDA-209-p)	MIC (P. aeruginosa NCTC-10490)	MIC (M. morganii ATCC-25830; [3])	MIC (P. mirabilis 1287)	MIC (S. marcescens IFO-12648)	SMILES	MIC (K. pneumoniae NCTC-9632)	MIC (M. morganii IIDKono)	MIC (M. morganii ATCC-25830)
–	≤ 0.025 µg/mL	–	0.05 µg/mL (≈ 0.0907 µM)	0.05 µg/mL (≈ 0.0907 µM)	–	0.1 µg/mL (≈ 0.181 µM)	12.5 µg/mL (≈ 22.7 µM)	0.2 µg/mL (≈ 0.363 µM)	0.1 µg/mL (≈ 0.181 µM)	0.2 µg/mL (≈ 0.363 µM)	C=CCO/N=C(\C(=O)N[C@@H]1C(=O)N2C(C(=O)[O-])=C(C[n+]3ccc(-c4cnco4)cc3)OC[C@H]12)c1csc(N)n1 [No. 13, (6S,7S}-7-[2-(2-aminothiazol-4-Yl)-2-allyloxyiminoacetamide]-3-[[4-[5-oxazolyl)-1-pyridinio]methyl]-Δ^3-0-2-isocephem-4-carboxylate (syn isomer)]	–	–	–
–	≤ 0.025 µg/mL	–	≤ 0.05 µg/mL	0.05 µg/mL (≈ 0.095 µM)	–	0.1 µg/mL (≈ 0.19 µM)	25 µg/mL (≈ 47.5 µM)	0.2 µg/mL (≈ 0.38 µM)	0.05 µg/mL (≈ 0.095 µM)	0.39 µg/mL (≈ 0.741 µM)	CC(C)O/N=C(\C(=O)N[C@@H]1C(=O)N2C(C(=O)[O-])=C(C[n+]3cccc4c3CCC4)OC[C@H]12)c1csc(N)n1 [No. 12, (6S,7S}-7-[2-(2-amino&hiazol-4-Yl}-2-isopropyloxyiminoacetamide]-3-[(6,7-dihydro-5H-1-pyridinio)]methyl]-Δ^3-0-2-isocephem-4-carboxylate (syn isomer)]	–	–	–
0.1 µg/mL (≈ 0.195 µM)	0.1 µg/mL (≈ 0.195 µM)	0.39 µg/mL (≈ 0.761 µM)	0.05 µg/mL (≈ 0.0976 µM)	0.05 µg/mL (≈ 0.0976 µM)	0.2 µg/mL (≈ 0.39 µM)	0.39 µg/mL (≈ 0.761 µM)	–	–	–	–	CO/N=C(\C(=O)N[C@@H]1C(=O)N2C(C(=O)O)=C(CN3CCc4ccccc4C3)OC[C@H]12)c1csc(N)n1 [No. 3, (6S,7S}-7-[2-(2-aminothiazol-4-yl)-2-methoxyiminoacetamide]-3-(1,2,3,4-tetrahydroisoquinolyn-2-yl}methyl-Δ^3-0-2-isocephem-4-carboxylic acid (syn isomer)]	–	–	–
–	≤ 0.025 µg/mL	–	0.05 µg/mL (≈ 0.0863 µM)	0.1 µg/mL (≈ 0.173 µM)	–	0.1 µg/mL (≈ 0.173 µM)	12.5 µg/mL (≈ 21.6 µM)	0.1 µg/mL (≈ 0.173 µM)	0.05 µg/mL (≈ 0.0863 µM)	0.2 µg/mL (≈ 0.345 µM)	Nc1nc(/C(=N/OC2CCCC2)C(=O)N[C@@H]2C(=O)N3C(C(=O)[O-])=C(C[n+]4ccc(-c5cnco5)cc4)OC[C@H]23)cs1 [No. 9, (6S,7S}-7-[2-(2-aminothiazol-4-yl)-2-cyclopentyloxyiminoacetamide]-3-[[4-(5-oxazolyl)-1-pyridinio]methyl]-Δ^3-0-2-isocephem-4carboxylate (syn isomer)]	–	–	–
≤ 0.025 µg/mL	≤ 0.025 µg/mL	0.1 µg/mL (≈ 0.191 µM)	≤ 0.025 µg/mL	≤ 0.025 µg/mL	≤ 0.025 µg/mL	0.2 µg/mL (≈ 0.381 µM)	–	–	–	–	CO/N=C(\C(=O)N[C@@H]1C(=O)N2C(C(=O)[O-])=C(C[n+]3ccc(-c4cc[nH]n4)cc3)OC[C@H]12)c1csc(N)n1 [No. 7, (6S,7S}-7-[2-[2-aminothiazol-4-Yl}-2-methoxyiminoacetamide]-3-[[4-(3-pyrazolyl)-1-pyridinio]methyl]-Δ^3-0-2-isocephem-4-carboxylate (syn isomer)]	–	–	–
≤ 0.025 µg/mL	≤ 0.025 µg/mL	0.05 µg/mL (≈ 0.0944 µM)	≤ 0.025 µg/mL	≤ 0.025 µg/mL	≤ 0.025 µg/mL	0.78 µg/mL (≈ 1.47 µM)	–	–	–	–	CO/N=C(\C(=O)N[C@@H]1C(=O)N2C(C(=O)[O-])=C(C[n+]3ccc(SCC#N)cc3)OC[C@H]12)c1csc(N)n1 [No. 6, (6S,7S)-7-[2-(2-aminothiazol-4-yl}-2-methoxyiminoaoetamide]-3-[(4-cyanomethyIthio-1-pyridinio)methyl]-Δ^3-0-2-isocephem-4-carboxylate (syn isomer)]	–	–	–
–	0.05 µg/mL (≈ 0.102 µM)	–	0.1 µg/mL (≈ 0.203 µM)	0.1 µg/mL (≈ 0.203 µM)	–	0.2 µg/mL (≈ 0.406 µM)	12.5 µg/mL (≈ 25.4 µM)	0.1 µg/mL (≈ 0.203 µM)	0.1 µg/mL (≈ 0.203 µM)	0.39 µg/mL (≈ 0.792 µM)	CC(C)O/N=C(\C(=O)N[C@@H]1C(=O)N2C(C(=O)[O-])=C(C[N+]3(C)CCCC3)OC[C@H]12)c1csc(N)n1 [No. 10, (6S,7S)-7-[2-(2-aminothiazol-4-yl)-2-(3-isopropyloxyiminoacetamide]-3-(1-methyl-1pyrrolidinio)methyl-^66 ^3-0-2-isocephem-4-carboxylate (syn isomer)]	–	–	–
